Inhibition and IC50 data for 4 molecules are collected here from ChEMBL document CHEMBL2384987, “Metabolites from Microcystis aeruginosa bloom material collected at a water reservoir near Kibbutz Hafetz Haim, Israel” (J Nat Prod, 2013).

For assay [1], the target named is T1, Trypsin (Homo sapiens, UniProt P07477+P07478+P35030). The assay is described as follows: Inhibition of trypsin (unknown origin) at 45.5 uM. The class given is protein assay.
The nature of assay [2]: Inhibition of chymotrypsin (unknown origin). Further details: species or system Homo sapiens.
A short description of assay [3]: Inhibition of elastase (unknown origin). Further details: species or system Homo sapiens.
In assay [4] the target is Prothrombin (Homo sapiens) (UniProt P00734). The assay is described as follows: Inhibition of thrombin (unknown origin) at 45.5 uM.
Assay [5] has as its target T1, Trypsin. The assay is described as follows: Inhibition of trypsin (unknown origin). The class given is protein assay.

Activity calls are given as the source filed them. No cut-off for these calls is given here. *1 amine or outer side, *2 acyl side, *3 side chain or, on linkers, in order; H or OH if unused. Where a SMILES comes first, the peptide text is derived from it. Bridges are numbered along the chain shown (N, C = ends). [ ]: non-standard residue; d: D form. The star is where a group is joined. Propanoyl(2R-OH,3-(4-HOPh)) = O=C([C@H](O)Cc1ccc(O)cc1)*; X1 = CO[C@@H]1CC[C@H](C(=O)[*:2])N1[*:1]; NMeF = CN[C@@H](Cc1ccccc1)C(=O)O

As to `CC(C)C[C@@H]1NC(=O)[C@@H](NC(=O)[C@H](CC(N)=O)NC(=O)[C@H](O)Cc2ccc(O)cc2)[C@@H](C)OC(=O)[C@H](C(C)C)NC(=O)[C@H](Cc2ccccc2)N(C)C(=O)[C@H](CC(C)C)N2C(=O)[C@H](CC[C@H]2O)NC1=O`, the inhibition result (on Trypsin [1]; in assay [4]) was “inactive” throughout. Also, the IC50 in assay [2] was 4.3 µM; in assay [3], 17.6 µM.
In the case of `CC(=O)O[C@@H]1CC[C@@H]2C[C@H](C(N)=O)N(C(=O)[C@@H](Cc3ccc(O)cc3)NC(=O)[C@@H](O)Cc3ccc(O)cc3)[C@@H]2C1`, at Trypsin [5], the concentration for half-maximal inhibition (IC50) came out at 45.5 µM.
On to `CC(C)C[C@@H]1NC(=O)[C@@H](NC(=O)[C@H](CC(N)=O)NC(=O)[C@H](O)Cc2ccc(O)cc2)[C@@H](C)OC(=O)[C@H](C(C)C)NC(=O)[C@H](Cc2ccccc2)N(C)C(=O)[C@H](CC(C)C)N2C=CC[C@H](NC1=O)C2=O`, for which the inhibition entry (at Trypsin [1]; in assay [4]) was “inactive” throughout. For the same molecule, the IC50 turned out to be 48.5 µM in assay [2] and 55.5 µM in assay [3].
Regarding `CO[C@@H]1CC[C@@H]2C(=O)N[C@@H](CC(C)C)C(=O)N(C)[C@@H](Cc3ccccc3)C(=O)N[C@@H](C(C)C)C(=O)O[C@H](C)[C@H](NC(=O)[C@H](CC(N)=O)NC(=O)[C@H](O)Cc3ccc(O)cc3)C(=O)N[C@@H](CC(C)C)C(=O)N21` ({Propanoyl(2R-OH,3-(4-HOPh))}-NTL[X1]L[NMeF]V; ester 2-C), the inhibition entry (at Trypsin [1]; in assay [4]) was “inactive” each time. Further, the 50% inhibitory concentration (IC50) in assay [2] stood at 45.9 µM; in assay [3] it was 16.9 µM.

By IC50 is commonly meant the point on the concentration scale where inhibition reaches its midpoint. A higher IC50 goes with a need for much substance.
